The values below come from patent publication US10611740B2, “Aryl dihydro-2H-benzo[b][1,4]oxazine sulfonamide and related compounds for use as agonists of RORγ and the treatment of disease” (Lycera Corporation, priority 2015, dated 2020).

Molecules are shown by their SMILES.

For assay [1], the target named is T1, Gal4-RORγ-LBD (Homo sapiens, UniProt P51449).
T1 construct: expressed in transfected cells; host or cells: HEK-293 cells (pcDNA3.1neo plasmid)
T1 sequence (P51449 269-508 limits assumed): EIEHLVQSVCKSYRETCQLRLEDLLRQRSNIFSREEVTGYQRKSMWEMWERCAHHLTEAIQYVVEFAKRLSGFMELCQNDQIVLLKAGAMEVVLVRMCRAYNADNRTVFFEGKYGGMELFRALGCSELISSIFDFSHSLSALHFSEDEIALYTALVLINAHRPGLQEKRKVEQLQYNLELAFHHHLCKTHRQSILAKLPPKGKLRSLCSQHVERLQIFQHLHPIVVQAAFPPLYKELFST
The assay is described as follows: Gal4-RORγ Luciferase Reporter Assay in HEK-293T Cells. Format: cell-based. The settings on record: HEK-293 cells. Summed up:
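Luminescence read-out (One-Glo, 10 min RT) after overnight compound exposure at 37 °C in HEK-293 cells carrying Gal4-RORγ-LBD plus a Gal4-luciferase reporter, in the presence of 2 μM ursolic acid. Max Response is the upper plateau from a 4-parameter logistic fit, normalized to untreated signal = 100.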
(In general: In a reporter assay the amount or activity of a reporter protein is the signal.)

Assay [2] has as its target T2, RORγ-LBD (Homo sapiens, UniProt P51449).
T2 construct: made in house; host or cells: SF9 cells (baculovirus)
T2 sequence (P51449 269-508 limits assumed): T1 sequence (P51449 269-508 limits assumed)
As to the kind of experiment: RORγ-Ligand Binding Domain (LBD) TR-FRET Assay.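 For TR-FRET Assay Max Response: 665/615 nm ratio relative to signal without ursolic acid or compound set at 100.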 The class given is biochemical. Summed up: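 TR-FRET read-out using a biotin-tagged SRC1 coactivator LXXLL peptide (200 nM final), with the antagonist ursolic acid present at 2 μM final. Receptor is His-tagged LBD expressed in SF9 cells, ~3 nM final in pH 7.0 Tris/KCl/EDTA/DTT/BSA buffer; compounds in 1% DMSO final.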

Setting [3] is: luciferase reporter, with 2 μM ursolic acid.

One may read the EC50 as the concentration at which the effect is half-maximal. Read a low EC50 as greater potency. Turning to `O=C(O)C1CC(=O)N(C[C@H]2CN(S(=O)(=O)c3cccc(C(F)(F)F)c3)c3cc(-c4cc(F)ccc4F)ccc3O2)C1` (stereo partly drawn) [Compound 18, 1-(((S)-6-(2,5-difluorophenyl)-4-((3-(trifluoromethyl)phenyl)sulfonyl)-3,4-dihydro-2H-benzo[b][1,4]oxazin-2-yl)methyl)-5-oxopyrrolidine-3-carboxylic acid], in assay [1] (2 μM ursolic acid), the EC50 lay in the range of 500 to 5000 nM and the “Gal4-RORγ Assay Max Response” value is given as “** (The symbol “**” indicates a value in the range of greater than 90 to 150)”. Moreover, in assay [2], the EC50 is less than 500 nM and the “TR-FRET Assay Max Response” value is reported as “**** (The symbol “****” indicates a value greater than 200)”.

Regarding `O=C(O)CCC[C@H]1CN(S(=O)(=O)c2cccc(C(F)(F)F)c2)c2cc(-c3cccc(F)c3F)ccc2O1` [Compound 21A, (S)-4-(6-(2,3-difluorophenyl)-4-((3-(trifluoromethyl)phenyl)-sulfonyl)-3,4-dihydro-2H-benzo[b][1,4]oxazin-2-yl)butanoic acid], in assay [1] (setting [3]), the EC50 was less than 500 nM and the “Gal4-RORγ Assay Max Response” value is listed as “** (The symbol “**” indicates a value in the range of greater than 90 to 150)”. For the same molecule, in assay [2], the EC50 is less than 500 nM and the “TR-FRET Assay Max Response” value is recorded as “**** (The symbol “****” indicates a value greater than 200)”.

Regarding `COc1cccc(-c2ccc3c(c2)N(S(=O)(=O)c2cccc(C(F)(F)F)c2)C[C@H](CCCC(=O)O)O3)c1` [Compound 21B, (S)-4-(6-(3-methoxyphenyl)-4-((3-(trifluoromethyl)phenyl)sulfonyl)-3,4-dihydro-2H-benzo[b][1,4]-oxazin-2-yl)butanoic acid], in assay [1] (setting [3]), the EC50 was less than 500 nM and the “Gal4-RORγ Assay Max Response” value was “** (The symbol “**” indicates a value in the range of greater than 90 to 150)”. In assay [2], the EC50 was less than 500 nM and the “TR-FRET Assay Max Response” value was “**** (The symbol “****” indicates a value greater than 200)”.

On to `O=C(O)CCC[C@H]1CN(S(=O)(=O)c2cccc(C(F)(F)F)c2)c2cc(-c3cccc(C(F)(F)F)n3)ccc2O1` [Compound 21C, (S)-4-(4-((3-(trifluoromethyl)-phenyl)sulfonyl)-6-(6-(trifluoromethyl)pyridin-2-yl)-3,4-dihydro-2H-benzo[b][1,4]oxazin-2-yl)butanoic acid], for which, in assay [1] (setting [3]), the EC50 is less than 500 nM and the “Gal4-RORγ Assay Max Response” value is reported as “*** (The symbol “***” indicates a value in the range of greater than 150 to 200)”. In assay [2], the EC50 is less than 500 nM and the “TR-FRET Assay Max Response” value is listed as “**** (The symbol “****” indicates a value greater than 200)”.

On to `O=C(O)CCC[C@H]1CN(S(=O)(=O)c2cccc(C(F)(F)F)c2)c2cc(-c3cc(F)cc(F)c3Cl)ccc2O1` [Compound 21D, (S)-4-(6-(2-chloro-3,5-difluorophenyl)-4-((3-(trifluoromethyl)phenyl)sulfonyl)-3,4-dihydro-2H-benzo[b][1,4]-oxazin-2-yl)butanoic acid], for which, in assay [1] (setting [3]), the EC50 is less than 500 nM and the “Gal4-RORγ Assay Max Response” value was “*** (The symbol “***” indicates a value in the range of greater than 150 to 200)”. For the same molecule, in assay [2], the EC50 is less than 500 nM and the “TR-FRET Assay Max Response” value is recorded as “*** (The symbol “***” indicates a value in the range of greater than 150 to 200)”.

For `O=C(O)CC[C@H]1CN(S(=O)(=O)c2cccc(C(F)(F)F)c2)c2cc(-c3cccc(C(F)(F)F)n3)cc(F)c2O1` [Compound 22A, (S)-3-(8-fluoro-4-((3-(trifluoromethyl)phenyl)-sulfonyl)-6-(6-(trifluoromethyl)pyridin-2-yl)-3,4-dihydro-2H-benzo[b][1,4]oxazin-2-yl)propanoic acid], in assay [1] (setting [3]), the EC50 is less than 500 nM and the “Gal4-RORγ Assay Max Response” value is listed as “** (The symbol “**” indicates a value in the range of greater than 90 to 150)”. In addition, in assay [2], the EC50 was less than 500 nM and the “TR-FRET Assay Max Response” value is reported as “**** (The symbol “****” indicates a value greater than 200)”.

For the molecule `O=C(O)CC[C@H]1CN(S(=O)(=O)c2cccc(C(F)(F)F)c2)c2cc(-c3cccc(F)c3F)c(Cl)cc2O1` [Compound 22B, (S)-3-(7-chloro-6-(2,3-difluorophenyl)-4-((3-(trifluoromethyl)phenyl)sulfonyl)-3,4-dihydro-2H-benzo[b][1,4]-oxazin-2-yl)propanoic acid], in assay [1] (setting [3]), the EC50 was less than 500 nM and the “Gal4-RORγ Assay Max Response” value is recorded as “** (The symbol “**” indicates a value in the range of greater than 90 to 150)”. Also, in assay [2], the EC50 is less than 500 nM and the “TR-FRET Assay Max Response” value is “**** (The symbol “****” indicates a value greater than 200)”.

As for `COc1cccc(-c2cc3c(cc2Cl)O[C@@H](CCC(=O)O)CN3S(=O)(=O)c2cccc(C(F)(F)F)c2)c1` [Compound 22C, (S)-3-(7-chloro-6-(3-methoxyphenyl)-4-((3-(trifluoromethyl)phenyl)sulfonyl)-3,4-dihydro-2H-benzo[b][1,4]-oxazin-2-yl)propanoic acid], in assay [1] (setting [3]), the EC50 was less than 500 nM and the “Gal4-RORγ Assay Max Response” value is “** (The symbol “**” indicates a value in the range of greater than 90 to 150)”. Further, in assay [2], the EC50 was less than 500 nM and the “TR-FRET Assay Max Response” value is recorded as “**** (The symbol “****” indicates a value greater than 200)”.

As for `COc1cccc(-c2cc(F)c3c(c2)N(S(=O)(=O)c2cccc(C(F)(F)F)c2)C[C@H](CCC(=O)O)O3)c1` [Compound 22D, (S)-3-(8-fluoro-6-(3-methoxyphenyl)-4-((3-(trifluoromethyl)phenyl)sulfonyl)-3,4-dihydro-2H-benzo[b][1,4]-oxazin-2-yl)propanoic acid], in assay [1] (setting [3]), the EC50 is less than 500 nM and the “Gal4-RORγ Assay Max Response” value was “** (The symbol “**” indicates a value in the range of greater than 90 to 150)”. Further, in assay [2], the EC50 was less than 500 nM and the “TR-FRET Assay Max Response” value is given as “**** (The symbol “****” indicates a value greater than 200)”.

Turning to `O=C(O)CC[C@H]1CN(S(=O)(=O)c2cccc(C(F)(F)F)c2)c2cc(-c3cccc(F)c3F)cc(F)c2O1` [Compound 22E, (S)-3-(6-(2,3-difluorophenyl)-8-fluoro-4-((3-(trifluoromethyl)phenyl)sulfonyl)-3,4-dihydro-2H-benzo[b][1,4]-oxazin-2-yl)propanoic acid], in assay [1] (setting [3]), the EC50 is less than 500 nM and the “Gal4-RORγ Assay Max Response” value was “** (The symbol “**” indicates a value in the range of greater than 90 to 150)”. Moreover, in assay [2], the EC50 was less than 500 nM and the “TR-FRET Assay Max Response” value is recorded as “**** (The symbol “****” indicates a value greater than 200)”.

As for `O=C(O)CC[C@H]1CN(S(=O)(=O)c2cccc(C(F)(F)F)c2)c2cc(-c3cc(F)cc(F)c3Cl)c(Cl)cc2O1` [Compound 22G, (S)-3-(7-chloro-6-(2-chloro-3,5-difluorophenyl)-4-((3-(trifluoromethyl)phenyl)sulfonyl)-3,4-dihydro-2H-benzo[b][1,4]-oxazin-2-yl)propanoic acid], in assay [1] (setting [3]), the EC50 is less than 500 nM and the “Gal4-RORγ Assay Max Response” value is “** (The symbol “**” indicates a value in the range of greater than 90 to 150)”. Further, in assay [2], the concentration giving a half-maximal response (EC50) is less than 500 nM and the “TR-FRET Assay Max Response” value is “*** (The symbol “***” indicates a value in the range of greater than 150 to 200)”.

With `O=C(O)CC[C@H]1CN(S(=O)(=O)c2cccc(C(F)(F)F)c2)c2cc(-c3cc(F)cc(F)c3Cl)cc(F)c2O1` [Compound 22H, (S)-3-(6-(2-chloro-3,5-difluoro-phenyl)-8-fluoro-4-((3-(trifluoro-methyl)phenyl)sulfonyl)-3,4-dihydro-2H-benzo[b][1,4]oxazin-2-yl)propanoic acid], in assay [1] (2 μM ursolic acid), the EC50 was less than 500 nM and the “Gal4-RORγ Assay Max Response” value is on record as “** (The symbol “**” indicates a value in the range of greater than 90 to 150)”. Further, in assay [2], the EC50 is less than 500 nM and the “TR-FRET Assay Max Response” value is “*** (The symbol “***” indicates a value in the range of greater than 150 to 200)”.

For `O=C(O)CC[C@H]1CN(S(=O)(=O)c2cccc(C(F)(F)F)c2)c2cc(-c3cccc(Cl)c3F)cc(F)c2O1` [Compound 22I, (S)-3-(6-(3-chloro-2-fluoro-phenyl)-8-fluoro-4-((3-(trifluoromethyl)phenyl)sulfonyl)-3,4-dihydro-2H-benzo[b][1,4]-oxazin-2-yl)propanoic acid], in assay [1] (2 μM ursolic acid), the EC50 is less than 500 nM and the “Gal4-RORγ Assay Max Response” value is recorded as “** (The symbol “**” indicates a value in the range of greater than 90 to 150)”. In assay [2], the EC50 was less than 500 nM and the “TR-FRET Assay Max Response” value is recorded as “*** (The symbol “***” indicates a value in the range of greater than 150 to 200)”.

Turning to `O=C(O)CC[C@H]1CN(S(=O)(=O)c2cccc(C(F)(F)F)c2)c2cc(-c3cccc(Cl)c3F)c(Cl)cc2O1` [Compound 22J, (S)-3-(7-chloro-6-(3-chloro-2-fluorophenyl)-4-((3-(trifluoro-methyl)phenyl)sulfonyl)-3,4-dihydro-2H-benzo[b][1,4]oxazin-2-yl)propanoic acid], in assay [1] (2 μM ursolic acid), the EC50 was less than 500 nM and the “Gal4-RORγ Assay Max Response” value is “** (The symbol “**” indicates a value in the range of greater than 90 to 150)”. For the same molecule, in assay [2], the EC50 is less than 500 nM and the “TR-FRET Assay Max Response” value was “*** (The symbol “***” indicates a value in the range of greater than 150 to 200)”.
